pIC50: −log10 of the molar value. Like-named read-outs stand apart in the source and are kept apart here.
How the values were obtained:
[1] = target: Mer (phospho-Mer, MERTK-transfected 293A cells) (Homo sapiens (Human), UniProt Q12866); test: Mer autophosphorylation ELISA in transient transfected 293A cells (Example H); type: cell-based; details: cellular activity; Mer autophosphorylation ELISA in transient transfected 293A cells
Summary of the method: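 Inhibition of cellular Mer autophosphorylation is determined in 293A cells transiently expressing human MERTK after 1 h compound exposure (8 concentrations, serum-free, 0.3% DMSO). Phospho-Mer in clarified lysates is measured by ELISA, with DMSO and reference-inhibitor wells defining the 100% and 0% activity limits.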

[2] = target: Human KDR (residues 790-1356) (Homo sapiens (Human), UniProt P35968); test: Human KDR kinase assay, HTRF KinEase (Example B-2); type: biochemical
Summary of the method: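 Human KDR residues 790-1356 (0.1 ng/well) in buffer with 5 mM MgCl2, 1 mM MnCl2, 1 mM DTT, biotinylated peptide substrate, ATP at Km (4.0 μM), 3% DMSO, 10 compound concentrations; 40 min, room temperature. EDTA stop, streptavidin-XL665/Eu-TK antibody HTRF read 665/620 nm; 4-parameter IC50.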

[3] = target: KDR (phospho-KDR, VEGF165-stimulated HUVEC cells) (Homo sapiens (Human), UniProt P35968); test: KDR autophosphorylation ELISA in HUVEC cells (Example G); type: cell-based; details: cellular activity; KDR autophosphorylation ELISA in HUVEC cells
Summary of the method: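 Cells seeded, grown 24 h at 37 °C, starved 24 h serum-free; cpd 8-pt curve, 0.3% DMSO, 1 h; VEGF165 100 ng/mL, 5 min; cold PBS wash, lysis with orthovanadate and protease/phosphatase inhibitors; pKDR ELISA; IC50 by 4-parameter logistic regression.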

[4] = target: Human MET (residues 956-1390) (Homo sapiens (Human), UniProt P08581); test: Human Met kinase assay, HTRF KinEase (Example D-2); type: biochemical; details: read-out: c-Met IC50
Summary of the method: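 IC50 values come from a 4-parameter logistic fit of the […] fluorescence ratio, set between DMSO (100%) and reference compound at 1 μM (0%). Reactions held MET 956-1390 at 0.1 ng/well, ATP at Km, biotinylated peptide, 5 mM MgCl2, 1 mM MnCl2, 1 mM DTT and 3% DMSO, and ran 40 min at room temperature before streptavidin-XL665/Eu-antibody detection.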

[5] = protocol of Example B-2 (other compounds)
[6] = protocol of Example D-2 (other compounds)

Sequence of KDR (phospho-KDR, VEGF165-stimulated HUVEC cells) (P35968 20-1356): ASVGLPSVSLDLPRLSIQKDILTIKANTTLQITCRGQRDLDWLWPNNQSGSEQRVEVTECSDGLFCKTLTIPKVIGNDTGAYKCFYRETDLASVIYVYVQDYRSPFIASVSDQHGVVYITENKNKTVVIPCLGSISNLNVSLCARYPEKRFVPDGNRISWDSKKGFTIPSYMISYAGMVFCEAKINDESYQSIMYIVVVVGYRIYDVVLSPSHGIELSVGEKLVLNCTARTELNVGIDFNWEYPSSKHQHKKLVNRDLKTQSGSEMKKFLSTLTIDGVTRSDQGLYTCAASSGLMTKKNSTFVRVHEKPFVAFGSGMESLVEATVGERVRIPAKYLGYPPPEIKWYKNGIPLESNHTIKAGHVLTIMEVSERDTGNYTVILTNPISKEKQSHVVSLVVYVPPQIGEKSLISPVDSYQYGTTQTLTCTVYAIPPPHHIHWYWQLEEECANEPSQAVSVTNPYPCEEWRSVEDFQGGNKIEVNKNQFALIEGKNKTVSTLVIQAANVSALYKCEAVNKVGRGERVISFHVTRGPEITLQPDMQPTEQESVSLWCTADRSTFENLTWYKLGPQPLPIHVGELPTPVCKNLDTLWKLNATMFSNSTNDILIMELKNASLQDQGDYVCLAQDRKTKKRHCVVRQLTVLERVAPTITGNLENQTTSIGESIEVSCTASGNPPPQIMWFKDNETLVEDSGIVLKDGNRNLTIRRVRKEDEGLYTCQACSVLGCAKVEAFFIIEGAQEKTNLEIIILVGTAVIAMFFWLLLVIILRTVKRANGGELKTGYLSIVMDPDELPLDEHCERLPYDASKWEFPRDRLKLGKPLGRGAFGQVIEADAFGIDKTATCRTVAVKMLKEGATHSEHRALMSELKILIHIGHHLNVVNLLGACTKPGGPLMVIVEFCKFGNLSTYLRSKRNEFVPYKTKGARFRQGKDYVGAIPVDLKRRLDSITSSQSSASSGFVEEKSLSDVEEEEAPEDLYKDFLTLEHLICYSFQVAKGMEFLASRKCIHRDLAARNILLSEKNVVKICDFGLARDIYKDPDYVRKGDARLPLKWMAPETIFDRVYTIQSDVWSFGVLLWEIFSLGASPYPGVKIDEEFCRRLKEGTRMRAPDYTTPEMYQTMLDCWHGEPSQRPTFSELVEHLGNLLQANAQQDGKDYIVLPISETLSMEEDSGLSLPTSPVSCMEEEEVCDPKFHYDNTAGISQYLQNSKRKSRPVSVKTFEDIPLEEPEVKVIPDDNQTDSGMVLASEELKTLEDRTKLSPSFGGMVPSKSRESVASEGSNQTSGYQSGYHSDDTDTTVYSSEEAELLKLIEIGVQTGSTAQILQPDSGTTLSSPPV
Sequence of Mer (phospho-Mer, MERTK-transfected 293A cells) (Q12866 21-999): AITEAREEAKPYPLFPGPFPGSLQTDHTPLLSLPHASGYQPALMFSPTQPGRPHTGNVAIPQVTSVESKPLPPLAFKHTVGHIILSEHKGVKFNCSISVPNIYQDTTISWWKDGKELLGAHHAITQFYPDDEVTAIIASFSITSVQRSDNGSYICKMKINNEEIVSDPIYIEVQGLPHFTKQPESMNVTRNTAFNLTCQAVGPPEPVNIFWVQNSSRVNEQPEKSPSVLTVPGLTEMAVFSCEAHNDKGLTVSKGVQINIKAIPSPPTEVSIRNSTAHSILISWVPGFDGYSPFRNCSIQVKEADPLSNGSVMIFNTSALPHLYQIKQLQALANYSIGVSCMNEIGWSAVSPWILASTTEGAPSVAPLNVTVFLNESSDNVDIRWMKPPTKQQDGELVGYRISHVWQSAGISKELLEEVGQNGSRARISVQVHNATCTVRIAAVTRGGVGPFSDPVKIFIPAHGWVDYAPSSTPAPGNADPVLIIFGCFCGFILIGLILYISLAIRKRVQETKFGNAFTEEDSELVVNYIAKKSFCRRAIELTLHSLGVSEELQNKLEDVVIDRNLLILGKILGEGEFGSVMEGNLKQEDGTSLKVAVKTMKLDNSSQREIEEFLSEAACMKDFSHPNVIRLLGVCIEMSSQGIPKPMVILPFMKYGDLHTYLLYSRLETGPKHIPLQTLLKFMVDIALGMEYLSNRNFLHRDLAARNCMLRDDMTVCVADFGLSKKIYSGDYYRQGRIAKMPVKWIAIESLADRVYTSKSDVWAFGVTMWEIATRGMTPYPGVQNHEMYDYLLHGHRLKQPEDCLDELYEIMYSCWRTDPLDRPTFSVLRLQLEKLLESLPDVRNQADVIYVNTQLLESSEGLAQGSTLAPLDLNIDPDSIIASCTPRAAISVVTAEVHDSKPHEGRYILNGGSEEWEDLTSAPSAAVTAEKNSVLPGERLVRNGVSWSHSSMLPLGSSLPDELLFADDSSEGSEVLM
Sequence of Human MET (residues 956-1390) (P08581 956-1390): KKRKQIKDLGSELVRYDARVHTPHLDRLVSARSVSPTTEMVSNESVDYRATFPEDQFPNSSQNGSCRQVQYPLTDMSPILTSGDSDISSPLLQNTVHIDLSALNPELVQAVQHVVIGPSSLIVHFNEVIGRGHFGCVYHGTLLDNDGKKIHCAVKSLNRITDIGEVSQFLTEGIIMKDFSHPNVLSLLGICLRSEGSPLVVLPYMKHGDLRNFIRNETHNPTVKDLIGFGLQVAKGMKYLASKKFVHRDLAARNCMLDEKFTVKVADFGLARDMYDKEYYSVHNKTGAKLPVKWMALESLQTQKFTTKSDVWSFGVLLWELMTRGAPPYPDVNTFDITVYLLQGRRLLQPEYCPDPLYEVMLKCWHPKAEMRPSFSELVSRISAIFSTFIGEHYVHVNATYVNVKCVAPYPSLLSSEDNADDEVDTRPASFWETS
Sequence of Human KDR (residues 790-1356) (P35968 790-1356): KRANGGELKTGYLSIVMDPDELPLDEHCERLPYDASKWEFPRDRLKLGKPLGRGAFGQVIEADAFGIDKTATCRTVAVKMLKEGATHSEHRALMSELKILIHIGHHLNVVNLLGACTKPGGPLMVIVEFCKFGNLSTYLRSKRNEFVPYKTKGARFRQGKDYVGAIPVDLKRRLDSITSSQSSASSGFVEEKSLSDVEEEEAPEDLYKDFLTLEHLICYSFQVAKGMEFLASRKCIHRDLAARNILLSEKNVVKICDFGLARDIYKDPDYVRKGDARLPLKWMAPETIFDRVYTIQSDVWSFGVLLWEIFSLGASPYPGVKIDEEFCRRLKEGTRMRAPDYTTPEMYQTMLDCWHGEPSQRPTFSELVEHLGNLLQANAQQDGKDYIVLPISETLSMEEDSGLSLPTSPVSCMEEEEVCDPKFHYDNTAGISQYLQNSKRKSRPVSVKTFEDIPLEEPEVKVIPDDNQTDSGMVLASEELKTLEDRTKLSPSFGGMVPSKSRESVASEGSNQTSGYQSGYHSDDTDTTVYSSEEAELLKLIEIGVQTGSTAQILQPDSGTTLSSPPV

Structure (SMILES)	pIC50 [1]	pIC50 ([2]; protocol of Example B-2)	pIC50 [3]	pIC50 ([4]; protocol of Example D-2)	pIC50 [2, 5]	pIC50 [4, 6]
C=C(C)c1cnc2c(Oc3ccc(NC(=O)c4cnc(C)c(-c5ccc(F)cc5C)c4O)cc3)ccnc2c1 [Compound 448, 5-(4-fluoro-2-methylphenyl)-4-hydroxy-6-methyl-N-[4-[(7-prop-1-en-2-yl-1,5-naphthyridin-4-yl)oxy]phenyl]pyridine-3-carboxamide]	> 7.00	6.52 to 7.00	> 7.00	> 7.00	–	–
COc1cnc2c(Oc3ccc(NC(=O)c4cc(C)nn(-c5ccc(F)cc5)c4=O)cc3)ccnc2c1 [Compound 522, 2-(4-fluorophenyl)-N-[4-[(7-methoxy-1,5-naphthyridin-4-yl)oxy]phenyl]-6-methyl-3-oxopyridazine-4-carboxamide]	< 6.52	< 6.52	< 6.52	6.52 to 7.00	–	–
Cc1ccc2nccc(Oc3ccc(NC(=O)c4c(C)nc(C)c(-c5ccc(F)cc5C)c4O)cc3F)c2n1 [Compound 506, N-[3-fluoro-4-[(6-methyl-1,5-naphthyridin-4-yl)oxy]phenyl]-5-(4-fluoro-2-methylphenyl)-4-hydroxy-2,6-dimethylpyridine-3-carboxamide]	> 7.00	< 6.52	> 7.00	> 7.00	–	–
COc1cc2nccc(Oc3ccc(NC(=O)c4c(C)nc(C)c(-c5ccc(F)cc5CO)c4O)cc3F)c2nc1OC [Compound 518, N-[4-[(6,7-dimethoxy-1,5-naphthyridin-4-yl)oxy]-3-fluorophenyl]-5-[4-fluoro-2-(hydroxymethyl]phenyl]-4-hydroxy-2,6-dimethylpyridine-3-carboxamide]	> 7.00	> 7.00	> 7.00	> 7.00	–	–
COc1cnc2c(Oc3ccc(NC(=O)c4nn(C)c(C)c(-c5ccc(F)cc5C)c4=O)cc3)ccnc2c1 [Compound 514, 5-(4-fluoro-2-methylphenyl)-N-[4-[(7-methoxy-1,5-naphthyridin-4-yl)oxy]phenyl]-1,6-dimethyl-4-oxopyridazine-3-carboxamide]	> 7.00	> 7.00	> 7.00	> 7.00	–	–
COc1cc2nccc(Oc3ccc(NC(=O)c4cn(CC(F)(F)F)c(C)c(-c5ccc(F)cc5)c4=O)cc3)c2cc1OC [Compound 260, N-[4-(6,7-Dimethoxyquinolin-4-yl)oxyphenyl]-5-(4-fluorophenyl)-6-methyl-4-oxo-1-(2,2,2-trifluoroethyl)pyridine-3-carboxamide]	> 7.00	–	< 6.52	–	< 6.52	> 7.00
COc1ccc2nccc(Oc3ccc(NC(=O)c4c(C)n(C)cc(-c5ccc(F)cc5C)c4=O)cc3F)c2n1 [Compound 483, N-[3-fluoro-4-[(6-methoxy-1,5-naphthyridin-4-yl)oxy]phenyl]-5-(4-fluoro-2-methylphenyl)-1,2-dimethyl-4-oxopyridine-3-carboxamide]	> 7.00	< 6.52	< 6.52	< 6.52	–	–
COc1cc2nccc(Oc3ccc(NC(=O)c4cn(C)c(CF)c(-c5ccc(F)cc5)c4=O)cc3)c2nc1OC [Compound 560, N-[4-[(6,7-Dimethoxy-1,5-naphthyridin-4-yl)oxy]phenyl]-6-(fluoromethyl)-5-(4-fluorophenyl)-1-methyl-4-oxopyridine-3-carboxamide]	> 7.00	< 6.52	6.52 to 7.00	> 7.00	–	–
COCc1nc(C)c(-c2ccc(F)cc2C)c(O)c1C(=O)Nc1ccc(Oc2ccnc3ccc(OC)nc23)cc1 [Compound 516, 5-(4-fluoro-2-methylphenyl)-4-hydroxy-2-(methoxymethyl)-N-[4-[(6-methoxy-1,5-naphthyridin-4-yl)oxy]phenyl]-6-methylpyridine-3-carboxamide]	> 7.00	< 6.52	6.52 to 7.00	> 7.00	–	–
COc1cc2nccc(Oc3ccc(NC(=O)c4c(C)n(C)cc(-c5ccc(F)cc5C)c4=O)cc3F)c2nc1OC [Compound 481, N-[4-[(6,7-dimethoxy-1,5-naphthyridin-4-yl)oxy]-3-fluorophenyl]-5-(4-fluoro-2-methylphenyl)-1,2-dimethyl-4-oxopyridine-3-carboxamide]	> 7.00	6.52 to 7.00	> 7.00	> 7.00	–	–
COc1cnc2c(Oc3ccc(NC(=O)c4nnc(C)c(-c5ccc(F)cc5)c4OC)cc3)ccnc2c1 [Compound 515, 5-(4-fluorophenyl)-4-methoxy-N-[4-[(7-methoxy-1,5-naphthyridin-4-yl)oxy]phenyl]-6-methylpyridazine-3-carboxamide]	> 7.00	> 7.00	> 7.00	> 7.00	–	–
COc1cc2nccc(Oc3ccc(NC(=O)c4cnc(SC(C)C)n(-c5ccc(F)cc5)c4=O)cc3)c2cc1OC [Compound 539, N-[4-(6,7-dimethoxyquinolin-4-yl)oxyphenyl]-1-(4-fluorophenyl)-6-oxo-2-propan-2-ylsulfanylpyrimidine-5-carboxamide]	> 7.00	6.52 to 7.00	< 6.52	6.52 to 7.00	–	–
COc1nc2c(Oc3ccc(NC(=O)c4c(C)nc(C)c(-c5ccc(F)cc5)c4O)cc3F)ccnc2cc1C [Compound 459, N-[3-fluoro-4-[(6-methoxy-7-methyl-1,5-naphthyridin-4-yl)oxy]phenyl]-5-(4-fluorophenyl)-4-hydroxy-2,6-dimethylpyridine-3-carboxamide]	> 7.00	6.52 to 7.00	> 7.00	6.52 to 7.00	–	–

The next lines start with the values.

pIC50 [1]	pIC50 ([2]; protocol of Example B-2)	pIC50 [3]	pIC50 ([4]; protocol of Example D-2)	pIC50 [2, 5]	pIC50 [4, 6]	Structure (SMILES)
> 7.00	> 7.00	> 7.00	> 7.00	–	–	COCCOc1cc2nccc(Oc3ccc(NC(=O)c4c(COC)nc(C)c(-c5ccc(F)cc5)c4O)cc3F)c2nc1OC [Compound 482, N-[3-fluoro-4-[[6-methoxy-7-(2-methoxyethoxy)-1,5-naphthyridin-4-yl]oxy]phenyl]-5-(4-fluorophenyl)-4-hydroxy-2-(methoxymethyl)-6-methylpyridine-3-carboxamide]
> 7.00	6.52 to 7.00	> 7.00	> 7.00	–	–	COCc1nc(C)c(-c2ccc(F)cc2)c(O)c1C(=O)Nc1ccc(Oc2ccnc3ccc(OC)nc23)cc1 [Compound 510, 5-(4-fluorophenyl)-4-hydroxy-2-(methoxymethyl)-N-[4-[(6-methoxy-1,5-naphthyridin-4-yl)oxy]phenyl]-6-methylpyridine-3-carboxamide]
> 7.00	> 7.00	> 7.00	> 7.00	–	–	C=C(C)c1cnc2c(Oc3ccc(NC(=O)c4cnc(C)c(-c5ccc(F)cc5)c4O)cc3F)ccnc2c1 [Compound 456, 5-(4-fluorophenyl)-N-[3-fluoro-4-[(7-prop-1-en-2-yl-1,5-naphthyridin-4-yl)oxy]phenyl]-4-hydroxy-6-methylpyridine-3-carboxamide]
> 7.00	> 7.00	> 7.00	> 7.00	–	–	C=C(C)c1cnc2c(Oc3ccc(NC(=O)c4cnc(C)c(-c5ccc(F)cc5)c4O)cc3)ccnc2c1 [Compound 454, 5-(4-fluorophenyl)-4-hydroxy-6-methyl-N-[4-[(7-prop-1-en-2-yl-1,5-naphthyridin-4-yl)oxy]phenyl]pyridine-3-carboxamide]
> 7.00	–	> 7.00	–	> 7.00	> 7.00	COCCOc1ccc2nccc(Oc3ccc(NC(=O)c4c(C)nc(C)c(-c5ccc(F)cc5)c4O)cc3F)c2n1 [Compound 349, N-[3-fluoro-4-[[6-(2-methoxyethoxy)-1,5-naphthyridin-4-yl]oxy]phenyl]-5-(4-fluorophenyl)-4-hydroxy-2,6-dimethylpyridine-3-carboxamide]
> 7.00	–	> 7.00	–	6.52 to 7.00	> 7.00	COCCOc1ccc2nccc(Oc3ccc(NC(=O)c4cnc(C)c(-c5ccc(F)cc5)c4O)cc3F)c2n1 [Compound 348, N-[3-fluoro-4-[[6-(2-methoxyethoxy)-1,5-naphthyridin-4-yl]oxy]phenyl]-5-(4-fluorophenyl)-4-hydroxy-6-methylpyridine-3-carboxamide]
> 7.00	6.52 to 7.00	6.52 to 7.00	> 7.00	–	–	COCCOc1nc2c(Oc3ccc(NC(=O)c4cn(C)c(CF)c(-c5ccc(F)cc5)c4=O)cc3F)ccnc2cc1OC [Compound 557, N-[3-Fluoro-4-[[7-methoxy-6-(2-methoxyethoxy)-1,5-naphthyridin-4-yl]oxy]phenyl]-6-(fluoromethyl)-5-(4-fluorophenyl)-1-methyl-4-oxopyridine-3-carboxamide]

Source: patent publication US12371428B2 (Exelixis, Inc., priority 2019, dated 2025)
